Values after ≈ are worked out from the molar mass of the structure shown.
Key:
Format in all cases: functional
Pseudomonas aeruginosa [1] = experiment: Antimicrobial activity against Pseudomonas aeruginosa isolate 968 by broth microdilution method
Pseudomonas aeruginosa [2] = experiment: Antimicrobial activity against Pseudomonas aeruginosa isolate 878 by broth microdilution method
Pseudomonas aeruginosa [3] = experiment: Antimicrobial activity against Pseudomonas aeruginosa isolate 1050 by broth microdilution method
Pseudomonas aeruginosa [4] = experiment: Antimicrobial activity against Pseudomonas aeruginosa isolate 944 by broth microdilution method
Pseudomonas aeruginosa [5] = experiment: Antimicrobial activity against Pseudomonas aeruginosa isolate 1080 by broth microdilution method
Pseudomonas aeruginosa [6] = experiment: Antimicrobial activity against Pseudomonas aeruginosa isolate 896 by broth microdilution method
Pseudomonas aeruginosa [7] = experiment: Antimicrobial activity against Pseudomonas aeruginosa isolate 22 by broth microdilution method
Pseudomonas aeruginosa [8] = experiment: Antimicrobial activity against Pseudomonas aeruginosa isolate 913 by broth microdilution method
Pseudomonas aeruginosa [9] = experiment: Antimicrobial activity against Pseudomonas aeruginosa isolate 971 by broth microdilution method
Pseudomonas aeruginosa [10] = experiment: Antimicrobial activity against Pseudomonas aeruginosa isolate 1060 by broth microdilution method
Pseudomonas aeruginosa [11] = experiment: Antimicrobial activity against Pseudomonas aeruginosa isolate 927 by broth microdilution method
Pseudomonas aeruginosa [12] = experiment: Antimicrobial activity against Pseudomonas aeruginosa isolate 1006 by broth microdilution method
Pseudomonas aeruginosa [13] = experiment: Antimicrobial activity against Pseudomonas aeruginosa isolate 821 by broth microdilution method
Pseudomonas aeruginosa [14] = experiment: Antimicrobial activity against Pseudomonas aeruginosa isolate 856 by broth microdilution method
Pseudomonas aeruginosa [15] = experiment: Antimicrobial activity against Pseudomonas aeruginosa isolate 1036 by broth microdilution method
Pseudomonas aeruginosa [16] = experiment: Antimicrobial activity against Pseudomonas aeruginosa isolate 1093 by broth microdilution method
Pseudomonas aeruginosa [17] = experiment: Antimicrobial activity against Pseudomonas aeruginosa isolate 988 by broth microdilution method
Pseudomonas aeruginosa [18] = experiment: Antimicrobial activity against Pseudomonas aeruginosa isolate 1095 by broth microdilution method

Compound	MIC (Pseudomonas aeruginosa [1]) [µg/mL]	MIC (Pseudomonas aeruginosa [2]) [µg/mL]	MIC (Pseudomonas aeruginosa [3]) [µg/mL]	MIC (Pseudomonas aeruginosa [4]) [µg/mL]	MIC (Pseudomonas aeruginosa [5]) [µg/mL]	MIC (Pseudomonas aeruginosa [6]) [µg/mL]	MIC (Pseudomonas aeruginosa [7]) [µg/mL]	MIC (Pseudomonas aeruginosa [8]) [µg/mL]	MIC (Pseudomonas aeruginosa [9]) [µg/mL]	MIC (Pseudomonas aeruginosa [10]) [µg/mL]	MIC (Pseudomonas aeruginosa [11]) [µg/mL]	MIC (Pseudomonas aeruginosa [12]) [µg/mL]	MIC (Pseudomonas aeruginosa [13]) [µg/mL]	MIC (Pseudomonas aeruginosa [14]) [µg/mL]	MIC (Pseudomonas aeruginosa [15]) [µg/mL]	MIC (Pseudomonas aeruginosa [16]) [µg/mL]	MIC (Pseudomonas aeruginosa [17]) [µg/mL]	MIC (Pseudomonas aeruginosa [18]) [µg/mL]
CO/N=C(\C(=O)N[C@@H]1C(=O)N2C(C(=O)[O-])=C(C[N+]3(C)CCCC3)CS[C@H]12)c1csc(N)n1 [CEFEPIME]	32 (≈ 66.6 µM)	24 (≈ 49.9 µM)	4 (≈ 8.32 µM)	16 (≈ 33.3 µM)	64 (≈ 133 µM)	12 (≈ 25 µM)	16 (≈ 33.3 µM)	12 (≈ 25 µM)	32 (≈ 66.6 µM)	2 (≈ 4.16 µM)	24 (≈ 49.9 µM)	4 (≈ 8.32 µM)	> 256	> 256	12 (≈ 25 µM)	64 (≈ 133 µM)	12 (≈ 25 µM)	
CC(C)(O/N=C(\C(=O)N[C@@H]1C(=O)N2C(C(=O)[O-])=C(C[n+]3ccccc3)CS[C@H]12)c1csc(N)n1)C(=O)O [CEFTAZIDIME]	24 (≈ 43.9 µM)	12 (≈ 22 µM)	3 (≈ 5.49 µM)	4 (≈ 7.32 µM)	16 (≈ 29.3 µM)	12 (≈ 22 µM)	16 (≈ 29.3 µM)	24 (≈ 43.9 µM)	48 (≈ 87.8 µM)	2 (≈ 3.66 µM)	8 (≈ 14.6 µM)	4 (≈ 7.32 µM)	64 (≈ 117 µM)	> 256	2 (≈ 3.66 µM)	4 (≈ 7.32 µM)	6 (≈ 11 µM)	16 (≈ 29.3 µM)
O=C(O)c1cn(C2CC2)c2cc(N3CCNCC3)c(F)cc2c1=O [CIPROFLOXACIN]	> 32	> 32	> 32	4 (≈ 12.1 µM)	> 32				> 32		> 32		> 32	> 32	3 (≈ 9.05 µM)	> 32	4 (≈ 12.1 µM)	

Reference: ChEMBL document CHEMBL1649285, “In vivo efficacy of 1- and 2-gram human simulated prolonged infusions of doripenem against Pseudomonas aeruginosa” (Antimicrob Agents Chemother, 2009)
